According to patent US20260207600A1, “METHODS OF TREATMENT WITH MYOSIN MODULATOR” (MYOKARDIA, INC., priority 2019, published 2026):
Entries after “also recorded” stand apart in the source; their conditions may differ. Read-outs that look alike come from different tables or passages of the source.

Columns and labels:
CYP2C19 = CYP2C19 (Homo sapiens, UniProt P33261); test: In vitro contribution of CYP enzymes to mavacamten metabolism; assay type: in vitro ADME
[1] = Stable form analysis (slurry experiments, XRPD); assay type: physicochemical; details: for XRPD Result (stable form screening): Lot 2-4
Description: Slurrying. Slurries of the API were prepared by adding sufficient solids to a given solvent or solvent system at ambient conditions or at elevated temperature such that undissolved solids were present. The mixtures were then agitated in a closed vial at ambient or elevated temperature for an extended period of time. Solids were collected by vacuum filtration and analyzed.
A stable form analysis of the API (Lot 2-4) was performed to identify the preferred solid form within typical process conditions (e.g., ambient to 85° C., atmospheric pressure, with a variety of solvents including water).
A total of 17 slurries were held stirring at ambient temperature or with temperature cycling between 20 and 30 or 40° C. (with a few brief exposures to approximately 46° C.) for extended time periods (Table 13.4). Solids from the slurry experiments were filtered, air-dried, then analyzed by XRPD.

[2] = Half-life and clearance analysis from early clinical studies by CYP2C19 metabolizer phenotype; assay type: in vivo, human; details: for half-life / clearance: oral; for clearance: read-out: clearance rate
Description: The effect of CYP2C19 phenotype and genotype on the metabolism function of the CYP2C19 enzyme has been presently investigated. […] Specifically, normal metabolizers typically have a half-life of from about 6 to about 9 days, e.g., about 7 days (1 week), whereas poor metabolizers have a longer half-life, e.g., from about 12 to about 30 days, or often from about 16 to about 28 days based on current data in humans.
Half-life and clearance rate were analyzed after a single oral dose. Clearance rate was calculated as CL=Dose*F/AUCinf. […] Half-life and clearance rate were analyzed after the last dose upon reaching steady state. Clearance rate was calculated as CL,ss=Dose*F/AUC(0-T). Both trials were combined and analyzed by one-way ANOVA, followed by Tukey's multiple comparison test.
UM (rapid/ultra-rapid metabolizer) is *1/*17 or *17/*17; EM (extensive metabolizer) is *1/*1; IM (intermediate metabolizer) is *1/*2 or *17/*2; and PM (poor metabolizer) is *2/*2 or *2/*3.
Similar studies were performed for CYP3A5 and CYP2C9 polymorphisms.

CYP2J2 = molecular target: T1, CYP2J2 (Homo sapiens, UniProt P51589); test: In vitro contribution of CYP enzymes to mavacamten metabolism; assay type: in vitro ADME
T1 sequence (P51589 1-502): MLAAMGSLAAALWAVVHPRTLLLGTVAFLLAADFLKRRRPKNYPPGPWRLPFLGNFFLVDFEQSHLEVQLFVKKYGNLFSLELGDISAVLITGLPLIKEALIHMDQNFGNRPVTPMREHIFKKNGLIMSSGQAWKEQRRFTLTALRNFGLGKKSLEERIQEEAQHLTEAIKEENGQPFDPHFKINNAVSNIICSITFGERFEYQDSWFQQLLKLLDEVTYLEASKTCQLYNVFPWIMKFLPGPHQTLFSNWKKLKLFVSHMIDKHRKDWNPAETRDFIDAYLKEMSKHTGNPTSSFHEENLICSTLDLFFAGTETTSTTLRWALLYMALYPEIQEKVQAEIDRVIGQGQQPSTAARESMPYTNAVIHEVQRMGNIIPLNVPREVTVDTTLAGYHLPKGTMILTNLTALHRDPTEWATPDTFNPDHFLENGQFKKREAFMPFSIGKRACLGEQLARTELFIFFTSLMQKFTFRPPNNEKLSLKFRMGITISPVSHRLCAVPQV

[3] = human, in vivo, CYP2C19 normal metabolizers
[4] = human, in vivo, CYP2C19 poor metabolizers

Sequence of CYP2C19 (P33261 whole entry): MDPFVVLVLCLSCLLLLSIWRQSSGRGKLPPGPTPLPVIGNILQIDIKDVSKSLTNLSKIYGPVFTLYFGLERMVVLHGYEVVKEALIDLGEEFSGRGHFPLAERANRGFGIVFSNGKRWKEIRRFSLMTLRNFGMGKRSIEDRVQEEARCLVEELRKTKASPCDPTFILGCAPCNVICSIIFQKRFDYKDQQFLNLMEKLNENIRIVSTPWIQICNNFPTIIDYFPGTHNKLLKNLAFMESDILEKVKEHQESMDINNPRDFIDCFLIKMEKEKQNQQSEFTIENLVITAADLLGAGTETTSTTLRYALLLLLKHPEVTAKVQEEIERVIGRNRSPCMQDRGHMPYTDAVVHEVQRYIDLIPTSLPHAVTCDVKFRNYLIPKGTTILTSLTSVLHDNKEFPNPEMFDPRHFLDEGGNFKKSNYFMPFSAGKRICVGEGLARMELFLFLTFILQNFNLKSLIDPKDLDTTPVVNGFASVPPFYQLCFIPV

CC(C)n1c(=O)cc(N[C@@H](C)c2ccccc2)[nH]c1=O [mavacamten, (S)-3-Isopropyl-6-((1-phenylethyl)amino)pyrimidine-2, 4(1H,3H)-dione]
percent contribution to the metabolism of mavacamten (CYP2C19): 74% | solid form obtained from slurry experiments (XRPD) ([1]; 17 slurries, ambient temperature or cycling between 20 and 30 or 40° C., extended time): All slurry experiments yielded Form A, except one with chloroform | XRPD Result (stable form screening) ([1]; Anisole, Slurry, ~50° C., 4 d): Form A | XRPD Result (stable form screening) ([1]; CHCl3, TC, 20 to 30° C., 10 d): Form A + | XRPD Result (stable form screening) ([1]; DCM, Slurry, RT, 17 d): Form A | XRPD Result (stable form screening) ([1]; DMF:CHCl3 (20:80), Slurry, RT, 17 d): Form A | XRPD Result (stable form screening) ([1]; DMF:EtOH (20:80), Slurry, RT, 17 d): Form A | XRPD Result (stable form screening) ([1]; DMSO:water (90:10), Slurry, RT, 3 d, TC, 20 to 30° C., 10 d): Form A | XRPD Result (stable form screening) ([1]; EtOAc, TC 20 to 40° C., 10 d): Form A | XRPD Result (stable form screening) ([1]; EtOH, TC 20 to 40° C., 10 d): Form A | XRPD Result (stable form screening) ([1]; HFIPA:acetone (10:90), Slurry, RT, 17 d): Form A | XRPD Result (stable form screening) ([1]; MIBK, Slurry, ~80° C., 1 d): Form A | XRPD Result (stable form screening) ([1]; MeOH, Slurry, RT, 3 d, TC, 20 to 30° C., 10 d): Form A | XRPD Result (stable form screening) ([1]; NMP:MeOH (10:90), Slurry, RT, 17 d): Form A | XRPD Result (stable form screening) ([1]; NMP:toluene (80:20), Slurry, RT, 17 d): Form A | XRPD Result (stable form screening) ([1]; NMP:water (50:50), Slurry, RT, 17 d): Form A | XRPD Result (stable form screening) ([1]; THF:water (75:25), TC, 20 to 30° C., 10 d): Form A | XRPD Result (stable form screening) ([1]; THF, Slurry, RT, 3 d, TC, 20 to 40° C., 10 d): Form A | XRPD Result (stable form screening) ([1]; iPrOH, TC, 20 to 40° C., 10 d): Form A | clearance and terminal half-life by phenotype ([2]; CYP2C19 poor metabolizers vs other patients (UM, EM and IM)): lower clearance and longer terminal half-life | increase in exposure ([2]; PM genotype compared to normal CYP 2C19 metabolizer (NM) genotype): approximately 4 fold | effect of CYP3A4/5 (CYP3A5) and CYP2C9 polymorphisms on pharmacokinetics (half-life, clearance rate) ([2]; human, in vivo): insignificant effects; also recorded: did not have a significant effect | half-life [2, 3]: 6 to 9 days | clearance [2, 3]: 10 to 100 mL/min | half-life [2, 4]: 12 to 30 days | clearance [2, 4]: < 15 mL/min | percent contribution to the metabolism of mavacamten (CYP2J2): negligible
